Results reported in PubChem BioAssay (NCI).
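The compound was tested at five concentrations on cells cultured in 96-well plates, with a 48-hour exposure period. GI50: concentration for 50% inhibition of growth. TGI: total growth inhibition.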

What was measured:
Assay in all cases: DTP human tumour cell line panel, 48 h
UACC-257 melanoma = test system: UACC-257 melanoma
HL-60(TB) leukemia = test system: HL-60(TB) leukemia
IGROV1 ovarian = test system: IGROV1 ovarian
A498 renal = test system: A498 renal
A549 NSCLC = test system: A549 NSCLC
OVCAR-4 ovarian = test system: OVCAR-4 ovarian
SF-539 CNS = test system: SF-539 CNS
EKVX NSCLC = test system: EKVX NSCLC
NCI-H522 lung = test system: NCI-H522 lung
RPMI-8226 leukemia = test system: RPMI-8226 leukemia
HOP-92 NSCLC = test system: HOP-92 NSCLC
CAKI-1 renal = test system: CAKI-1 renal
M14 melanoma = test system: M14 melanoma
786-0 renal = test system: 786-0 renal
OVCAR-3 ovarian = test system: OVCAR-3 ovarian
UO-31 renal = test system: UO-31 renal
MOLT-4 leukemia = test system: MOLT-4 leukemia
K-562 leukemia = test system: K-562 leukemia
CCRF-CEM leukemia = test system: CCRF-CEM leukemia
BT-549 breast = test system: BT-549 breast
SF-268 CNS = test system: SF-268 CNS
HCC-2998 colon = test system: HCC-2998 colon
SF-295 CNS = test system: SF-295 CNS
PC-3 prostate = test system: PC-3 prostate
HCT-15 colon = test system: HCT-15 colon
SK-MEL-28 melanoma = test system: SK-MEL-28 melanoma
LOX IMVI melanoma = test system: LOX IMVI melanoma
NCI-H23 lung = test system: NCI-H23 lung
SNB-19 CNS = test system: SNB-19 CNS
SN12C renal = test system: SN12C renal
U251 CNS = test system: U251 CNS
NCI/ADR-RES ovarian = test system: NCI/ADR-RES ovarian
HT29 colon = test system: HT29 colon
UACC-62 melanoma = test system: UACC-62 melanoma
SK-OV-3 ovarian = test system: SK-OV-3 ovarian
OVCAR-5 ovarian = test system: OVCAR-5 ovarian
MALME-3M melanoma = test system: MALME-3M melanoma
SR leukemia = test system: SR leukemia
HCT-116 colon = test system: HCT-116 colon
MDA-MB-231 breast = test system: MDA-MB-231 breast
MDA-MB-468 breast = test system: MDA-MB-468 breast
TK-10 renal = test system: TK-10 renal
HS 578T breast = test system: HS 578T breast
NCI-H460 lung = test system: NCI-H460 lung
RXF 393 renal = test system: RXF 393 renal
KM12 colon = test system: KM12 colon
HOP-62 NSCLC = test system: HOP-62 NSCLC
OVCAR-8 ovarian = test system: OVCAR-8 ovarian
MCF7 breast = test system: MCF7 breast
NCI-H226 lung = test system: NCI-H226 lung
ACHN renal = test system: ACHN renal
SW-620 colon = test system: SW-620 colon
COLO 205 colon = test system: COLO 205 colon
T-47D breast = test system: T-47D breast
DU-145 prostate = test system: DU-145 prostate
MDA-MB-435 = test system: MDA-MB-435
SK-MEL-5 melanoma = test system: SK-MEL-5 melanoma

Cc1ccc(-c2ccc(SCC(=O)Nc3ccc(Cl)c(C(F)(F)F)c3)nn2)cc1
GI50 (UACC-257 melanoma): 12.1 µM
TGI (UACC-257 melanoma): > 100 µM
GI50 (HL-60(TB) leukemia): 0.319 µM
TGI (HL-60(TB) leukemia): 2.32 µM
GI50 (IGROV1 ovarian): 1.46 µM
TGI (IGROV1 ovarian): 46.4 µM
GI50 (A498 renal): 3.75 µM
TGI (A498 renal): 38 µM
GI50 (A549 NSCLC): 5.34 µM
TGI (A549 NSCLC): > 100 µM
GI50 (OVCAR-4 ovarian): 5.86 µM
TGI (OVCAR-4 ovarian): > 100 µM
GI50 (SF-539 CNS): 0.754 µM
TGI (SF-539 CNS): 3.35 µM
GI50 (EKVX NSCLC): 2.93 µM
TGI (EKVX NSCLC): > 100 µM
GI50 (NCI-H522 lung): 0.528 µM
TGI (NCI-H522 lung): 4 µM
GI50 (RPMI-8226 leukemia): 0.986 µM
TGI (RPMI-8226 leukemia): > 100 µM
GI50 (HOP-92 NSCLC): 2.95 µM
TGI (HOP-92 NSCLC): 59.5 µM
GI50 (CAKI-1 renal): 1.72 µM
TGI (CAKI-1 renal): > 100 µM
GI50 (M14 melanoma): 0.538 µM
TGI (M14 melanoma): > 100 µM
GI50 (786-0 renal): 0.892 µM
TGI (786-0 renal): 37.7 µM
GI50 (OVCAR-3 ovarian): 0.409 µM
TGI (OVCAR-3 ovarian): 1.94 µM
GI50 (UO-31 renal): 3.16 µM
TGI (UO-31 renal): > 100 µM
GI50 (MOLT-4 leukemia): 0.578 µM
TGI (MOLT-4 leukemia): > 100 µM
GI50 (K-562 leukemia): 0.419 µM
TGI (K-562 leukemia): > 100 µM
GI50 (CCRF-CEM leukemia): 0.459 µM
TGI (CCRF-CEM leukemia): > 100 µM
GI50 (BT-549 breast): 0.829 µM
TGI (BT-549 breast): 46.2 µM
GI50 (SF-268 CNS): 9.67 µM
TGI (SF-268 CNS): > 100 µM
GI50 (HCC-2998 colon): 1.29 µM
TGI (HCC-2998 colon): 10.5 µM
GI50 (SF-295 CNS): 0.5 µM
TGI (SF-295 CNS): 8.22 µM
GI50 (PC-3 prostate): 0.878 µM
TGI (PC-3 prostate): > 100 µM
GI50 (HCT-15 colon): 0.405 µM
TGI (HCT-15 colon): > 100 µM
GI50 (SK-MEL-28 melanoma): 5.77 µM
TGI (SK-MEL-28 melanoma): > 100 µM
GI50 (LOX IMVI melanoma): 2.48 µM
TGI (LOX IMVI melanoma): > 100 µM
GI50 (NCI-H23 lung): 2 µM
TGI (NCI-H23 lung): 32.7 µM
GI50 (SNB-19 CNS): 3.21 µM
TGI (SNB-19 CNS): 56.6 µM
GI50 (SN12C renal): 4.85 µM
TGI (SN12C renal): > 100 µM
GI50 (U251 CNS): 1.47 µM
TGI (U251 CNS): 38.5 µM
GI50 (NCI/ADR-RES ovarian): 0.393 µM
TGI (NCI/ADR-RES ovarian): 2.14 µM
GI50 (HT29 colon): 0.512 µM
TGI (HT29 colon): > 100 µM
GI50 (UACC-62 melanoma): 0.531 µM
TGI (UACC-62 melanoma): 39.4 µM
GI50 (SK-OV-3 ovarian): 3.82 µM
TGI (SK-OV-3 ovarian): 65.3 µM
GI50 (OVCAR-5 ovarian): 3.24 µM
TGI (OVCAR-5 ovarian): > 100 µM
GI50 (MALME-3M melanoma): 0.589 µM
TGI (MALME-3M melanoma): 36.5 µM
GI50 (SR leukemia): 0.34 µM
TGI (SR leukemia): > 100 µM
GI50 (HCT-116 colon): 0.445 µM
TGI (HCT-116 colon): > 100 µM
GI50 (MDA-MB-231 breast): 1.15 µM
TGI (MDA-MB-231 breast): 19.3 µM
GI50 (MDA-MB-468 breast): 0.371 µM
TGI (MDA-MB-468 breast): 2.25 µM
GI50 (TK-10 renal): 12.7 µM
TGI (TK-10 renal): 52.8 µM
GI50 (HS 578T breast): 1.05 µM
TGI (HS 578T breast): 8.14 µM
GI50 (NCI-H460 lung): 3.22 µM
TGI (NCI-H460 lung): > 100 µM
GI50 (RXF 393 renal): 1.1 µM
TGI (RXF 393 renal): 5.93 µM
GI50 (KM12 colon): 0.732 µM
TGI (KM12 colon): > 100 µM
GI50 (HOP-62 NSCLC): 1.23 µM
TGI (HOP-62 NSCLC): 24.1 µM
GI50 (OVCAR-8 ovarian): 2.71 µM
TGI (OVCAR-8 ovarian): > 100 µM
GI50 (MCF7 breast): 0.563 µM
TGI (MCF7 breast): > 100 µM
GI50 (NCI-H226 lung): 8.36 µM
TGI (NCI-H226 lung): > 100 µM
GI50 (ACHN renal): 6.84 µM
TGI (ACHN renal): > 100 µM
GI50 (SW-620 colon): 0.393 µM
TGI (SW-620 colon): > 100 µM
GI50 (COLO 205 colon): 1.06 µM
TGI (COLO 205 colon): 3.51 µM
GI50 (T-47D breast): 0.594 µM
TGI (T-47D breast): > 100 µM
GI50 (DU-145 prostate): 2.37 µM
TGI (DU-145 prostate): 17.9 µM
GI50 (MDA-MB-435): 0.22 µM
TGI (MDA-MB-435): 0.513 µM
GI50 (SK-MEL-5 melanoma): 0.435 µM
TGI (SK-MEL-5 melanoma): 8.76 µM
